Source: ChEMBL document CHEMBL4229418, “Design, synthesis and pharmacology of aortic-selective acyl-CoA: Cholesterol O-acyltransferase (ACAT/SOAT) inhibitors” (Bioorg Med Chem, 2018)

What was measured:
[1] = species: Oryctolagus cuniculus; assay: Selectivity ratio of IC50 for inhibition of SOAT2 in New Zealand white rabbit intestinal microsomes to IC50 for inhibition of SOAT1 in arterial homogenates isolated from 1% cholesterol fed New Zealand white rabbit
[2] = Inhibition of SOAT1 in arterial homogenates isolated from 1% cholesterol fed New Zealand white rabbit assessed as reduction in cholesteryl oleate formation incubated for 5 mins in presence of [14C]-oleoyl-CoA and BSA complex by TLC method; format: tissue-based, Oryctolagus cuniculus
[3] = Inhibition of SOAT2 in New Zealand white rabbit intestinal microsomes assessed as reduction in cholesteryl oleate formation incubated for 5 mins in presence of [14C]-oleoyl-CoA and BSA complex by TLC method; parameters: species or system Oryctolagus cuniculus, Intestine
[4] = target: T1, Sterol O-acyltransferase 1 (Mus musculus, UniProt Q61263); assay: Inhibition of ACAT1 in mouse J774 cells assessed as reduction in esterified cholesterol accumulation after 18 hrs in presence of 25-hydroxycholesterol; format: cell-based
T1 sequence (Q61263 whole entry): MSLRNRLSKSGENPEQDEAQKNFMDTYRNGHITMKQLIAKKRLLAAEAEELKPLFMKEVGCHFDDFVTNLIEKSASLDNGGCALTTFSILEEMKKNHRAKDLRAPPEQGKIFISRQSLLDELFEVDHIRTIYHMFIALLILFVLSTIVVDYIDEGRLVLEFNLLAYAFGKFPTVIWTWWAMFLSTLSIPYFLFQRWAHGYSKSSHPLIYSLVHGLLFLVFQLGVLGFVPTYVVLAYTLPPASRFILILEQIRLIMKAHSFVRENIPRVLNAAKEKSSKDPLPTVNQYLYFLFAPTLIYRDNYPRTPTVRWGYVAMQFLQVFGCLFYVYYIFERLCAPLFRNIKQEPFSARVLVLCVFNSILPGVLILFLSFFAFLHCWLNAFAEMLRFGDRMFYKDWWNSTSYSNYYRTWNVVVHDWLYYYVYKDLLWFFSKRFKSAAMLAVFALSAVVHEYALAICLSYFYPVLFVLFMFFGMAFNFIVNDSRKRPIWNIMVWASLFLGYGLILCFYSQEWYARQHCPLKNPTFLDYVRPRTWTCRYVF

CC(C)c1cccc(C(C)C)c1NC(=O)CCCCCCCCCSc1nc2ccccc2o1
Ratio IC50 [1]: 2.3 | IC50 [2]: 6 nM | IC50 [3]: 14 nM | IC50 [4]: 100 nM

CC(C)c1cccc(C(C)C)c1NC(=O)CCCCCSc1nc2ccc(CO)cc2o1
Ratio IC50 [1]: 2.4 | IC50 [2]: 76 nM | IC50 [3]: 180 nM | IC50 [4]: 7000 nM

CC(C)c1cccc(C(C)C)c1NC(=O)CCCCCSc1nc2cccc(CN(C)C)c2o1
Ratio IC50 [1]: 1.4 | IC50 [2]: 96 nM | IC50 [3]: 130 nM | IC50 [4]: 5600 nM

CC(C)c1cccc(C(C)C)c1NC(=O)CCCCCCCSc1nc2ccccc2o1
Ratio IC50 [1]: 5.5 | IC50 [2]: 4 nM | IC50 [3]: 22 nM | IC50 [4]: 40 nM
